The experiment addresses T1, collectin-11 (CL-11, CL-K1) (Homo sapiens, UniProt Q9BWP8).
T1 construct: gene COLEC11; recombinant homo-oligomer generated by expression of the CL-11 cDNA (isoform a)
Put plainly: competition ELISA, rCL-11 binding to immobilised yeast invertase. In general terms: ELISA stands for enzyme-linked immunosorbent assay.

Broadly, the IC50 is the concentration that inhibits the measured activity by half. High values mean weaker potency, low ones greater potency.

T1 sequence (Q9BWP8 26-271): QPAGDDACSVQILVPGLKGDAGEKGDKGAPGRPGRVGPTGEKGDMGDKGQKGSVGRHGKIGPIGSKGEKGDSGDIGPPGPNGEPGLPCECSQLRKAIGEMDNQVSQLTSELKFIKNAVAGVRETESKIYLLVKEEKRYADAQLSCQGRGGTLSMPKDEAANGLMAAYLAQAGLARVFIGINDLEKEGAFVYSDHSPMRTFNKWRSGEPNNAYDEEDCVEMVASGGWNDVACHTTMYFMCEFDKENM

`OC[C@H]1OC(O)[C@@H](O)[C@@H](O)[C@@H]1O` (stereo partly drawn) [D-mannose] yielded an IC50 of 11.8 mM.
`C[C@@H]1OC(O)[C@@H](O)[C@H](O)[C@@H]1O` (stereo partly drawn) [L-fucose] came in with an IC50 of 12.1 mM. This IC50 and that of the compound before are within 1.5-fold of each other.

(Values after article PMC6972607, “L‐Fucose prevention of renal ischaemia/reperfusion injury in Mice” (The FASEB Journal, 2019).)
